Data: patent US10800791B2, “Triazole ACC inhibitors and uses thereof” (Gilead Apollo, LLC, priority 2015, dated 2020)
≈ marks a conversion by molar mass, not a printed value. Like-named read-outs stand apart in the source and are kept apart here.

Assays:
[1] = system: Collectotrichum graminicola (Cg); assay: Growth inhibition assay of fungal pathogens, Cg; assay type: cell-based; conditions: 48 h, growth inhibition at 48 hours vs 2% DMSO control
Summary of the method: (§1)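 Inhibition percentages reflect 48 h OD600 and visual scores relative to a 2% DMSO control. Test concentrations were 50, 10, 2 ppm or 2, 0.4, 0.08 ppm final, applied to spores in 17% V8 medium.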

Septoria tritici (St) = assay: Growth inhibition assay of fungal pathogens, St; assay type: cell-based; conditions: Zymoseptoria tritici, 48 h, growth inhibition at 48 hours vs 2% DMSO control
Summary of the method: as §1

Diplodia maydis (Dm) = assay: Growth inhibition assay of fungal pathogens, Dm; assay type: cell-based; conditions: Stenocarpella maydis, 48 h, growth inhibition at 48 hours vs 2% DMSO control
Summary of the method: as §1

Botrtyis cinerea (Bc) = assay: Growth inhibition assay of fungal pathogens, Bc; assay type: cell-based; conditions: 48 h, growth inhibition at 48 hours vs 2% DMSO control
Summary of the method: as §1

C. krusei = assay: Antifungal Activity Assay (broth microtiter MIC), C. krusei; assay type: cell-based, Candida krusei; conditions: Pichia kudriavzevii, ATCC6258, 48 h
Summary of the method: (§2)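 CLSI M27-A3 broth microdilution in RPMI 1640+MOPS, final inoculum 2.5×10^3 CFU/mL from overnight Sabouraud cultures grown at 35 °C. MIC read visually at 48 h against growth control.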

C. albicans = assay: Antifungal Activity Assay (broth microtiter MIC), C. albicans; assay type: cell-based, Candida albicans; conditions: Candida albicans, ATCC90028, 48 h
Summary of the method: as §2

[2] = system: Fusarium virguliforme (Fv); assay: Growth inhibition assay of fungal pathogens, Fv; assay type: cell-based; conditions: 48 h
Summary of the method: as §1

human (hACC2) = human (hACC2) (Homo sapiens, UniProt O00763); assay: In vitro ACC inhibition assay (ADP-Glo), hACC2; assay type: biochemical; conditions: Table 2b, additional results, 5 nM ACC2, 20 μM ATP, 20 μM acetyl-CoA
human (hACC2), sequence (O00763 whole entry): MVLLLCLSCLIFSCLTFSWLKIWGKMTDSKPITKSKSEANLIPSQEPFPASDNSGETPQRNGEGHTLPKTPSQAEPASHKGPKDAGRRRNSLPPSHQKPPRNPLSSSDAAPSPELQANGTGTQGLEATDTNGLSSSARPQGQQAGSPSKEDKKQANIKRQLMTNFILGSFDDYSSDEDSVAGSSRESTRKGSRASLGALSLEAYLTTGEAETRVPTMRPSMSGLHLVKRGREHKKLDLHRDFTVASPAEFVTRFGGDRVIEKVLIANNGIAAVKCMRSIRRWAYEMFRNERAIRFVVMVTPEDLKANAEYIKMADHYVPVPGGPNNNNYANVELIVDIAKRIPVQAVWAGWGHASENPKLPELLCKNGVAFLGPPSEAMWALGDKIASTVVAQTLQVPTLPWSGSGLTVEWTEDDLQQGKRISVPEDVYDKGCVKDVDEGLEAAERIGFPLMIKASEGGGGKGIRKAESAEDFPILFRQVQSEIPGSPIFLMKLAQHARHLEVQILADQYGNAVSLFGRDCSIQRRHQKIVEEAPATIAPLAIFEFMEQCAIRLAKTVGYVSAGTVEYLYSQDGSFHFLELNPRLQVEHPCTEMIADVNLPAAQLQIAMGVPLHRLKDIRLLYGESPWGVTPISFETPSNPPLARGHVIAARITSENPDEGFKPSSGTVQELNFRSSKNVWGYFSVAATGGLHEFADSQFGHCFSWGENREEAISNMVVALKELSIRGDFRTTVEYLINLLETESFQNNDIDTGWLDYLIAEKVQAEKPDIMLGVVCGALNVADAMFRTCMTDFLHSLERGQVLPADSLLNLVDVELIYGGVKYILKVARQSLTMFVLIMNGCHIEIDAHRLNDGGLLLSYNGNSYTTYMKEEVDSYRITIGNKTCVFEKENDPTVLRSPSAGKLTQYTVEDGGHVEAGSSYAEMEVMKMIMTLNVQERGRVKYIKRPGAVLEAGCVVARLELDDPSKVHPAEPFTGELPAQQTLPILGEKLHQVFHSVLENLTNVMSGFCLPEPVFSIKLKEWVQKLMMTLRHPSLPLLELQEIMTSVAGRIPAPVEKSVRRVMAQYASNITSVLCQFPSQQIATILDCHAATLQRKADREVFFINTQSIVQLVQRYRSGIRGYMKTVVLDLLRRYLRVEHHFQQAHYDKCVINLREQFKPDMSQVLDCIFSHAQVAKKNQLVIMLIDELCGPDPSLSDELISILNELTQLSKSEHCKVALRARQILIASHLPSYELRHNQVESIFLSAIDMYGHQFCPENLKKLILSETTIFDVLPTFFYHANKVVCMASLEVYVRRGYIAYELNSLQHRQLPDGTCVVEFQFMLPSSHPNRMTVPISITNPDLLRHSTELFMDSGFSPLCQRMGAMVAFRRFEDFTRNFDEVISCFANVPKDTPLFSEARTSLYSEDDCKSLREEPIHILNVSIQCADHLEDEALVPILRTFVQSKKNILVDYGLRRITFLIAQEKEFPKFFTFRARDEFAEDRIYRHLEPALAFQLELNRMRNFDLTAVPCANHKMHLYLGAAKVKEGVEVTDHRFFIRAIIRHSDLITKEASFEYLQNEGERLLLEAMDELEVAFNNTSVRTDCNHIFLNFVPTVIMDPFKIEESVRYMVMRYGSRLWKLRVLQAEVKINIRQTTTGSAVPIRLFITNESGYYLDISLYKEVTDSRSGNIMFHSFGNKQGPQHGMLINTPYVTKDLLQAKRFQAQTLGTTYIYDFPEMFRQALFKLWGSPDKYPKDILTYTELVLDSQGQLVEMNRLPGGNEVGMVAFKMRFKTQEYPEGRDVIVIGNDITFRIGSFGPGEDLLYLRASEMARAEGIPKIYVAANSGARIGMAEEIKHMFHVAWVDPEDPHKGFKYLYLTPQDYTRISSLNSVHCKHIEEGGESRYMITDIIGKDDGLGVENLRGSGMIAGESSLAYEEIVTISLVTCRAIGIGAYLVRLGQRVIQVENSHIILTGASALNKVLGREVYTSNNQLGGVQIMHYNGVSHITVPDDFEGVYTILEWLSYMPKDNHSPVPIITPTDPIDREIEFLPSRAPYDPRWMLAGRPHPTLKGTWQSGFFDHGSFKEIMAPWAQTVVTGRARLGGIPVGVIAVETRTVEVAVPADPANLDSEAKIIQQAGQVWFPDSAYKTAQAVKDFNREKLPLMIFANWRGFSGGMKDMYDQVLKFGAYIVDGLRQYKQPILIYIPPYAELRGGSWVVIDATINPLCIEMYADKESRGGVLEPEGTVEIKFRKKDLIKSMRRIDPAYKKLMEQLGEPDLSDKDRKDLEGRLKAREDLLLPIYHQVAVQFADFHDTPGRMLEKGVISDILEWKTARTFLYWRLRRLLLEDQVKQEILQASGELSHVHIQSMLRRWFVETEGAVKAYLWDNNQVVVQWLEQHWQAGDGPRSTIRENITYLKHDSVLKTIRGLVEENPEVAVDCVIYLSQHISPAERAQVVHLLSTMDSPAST
Procedure: The detailed procedure is as follows. […] 10 μL ADP glo reagent was added. […] 20 μL kinase detection reagent was added.

Rhizoctonia solani (Rs) = assay: Growth inhibition assay of fungal pathogens, Rs; assay type: cell-based; conditions: 48 h
[3] = system: Phytophthora capsici (Pc); assay: Growth inhibition assay of fungal pathogens, Pc; assay type: cell-based; conditions: 48 h
Summary of the method: as §1

C. parapsilosis = assay: Antifungal Activity Assay (broth microtiter MIC), C. parapsilosis; assay type: cell-based, Candida parapsilosis; conditions: Lodderomyces parapsilosis, ATCC22019, 48 h
Summary of the method: as §2

fungal (fACC2) = fungal (fACC2) (UniProt Q00955); conditions: read-out: fACC2 (in vitro ACC2 Inhibition Assay, IC50); Table 2b, additional results; ADP-Glo, 5 nM ACC2, 20 μM ATP, 20 μM acetyl-CoA
fungal (fACC2), sequence (Q00955 whole entry): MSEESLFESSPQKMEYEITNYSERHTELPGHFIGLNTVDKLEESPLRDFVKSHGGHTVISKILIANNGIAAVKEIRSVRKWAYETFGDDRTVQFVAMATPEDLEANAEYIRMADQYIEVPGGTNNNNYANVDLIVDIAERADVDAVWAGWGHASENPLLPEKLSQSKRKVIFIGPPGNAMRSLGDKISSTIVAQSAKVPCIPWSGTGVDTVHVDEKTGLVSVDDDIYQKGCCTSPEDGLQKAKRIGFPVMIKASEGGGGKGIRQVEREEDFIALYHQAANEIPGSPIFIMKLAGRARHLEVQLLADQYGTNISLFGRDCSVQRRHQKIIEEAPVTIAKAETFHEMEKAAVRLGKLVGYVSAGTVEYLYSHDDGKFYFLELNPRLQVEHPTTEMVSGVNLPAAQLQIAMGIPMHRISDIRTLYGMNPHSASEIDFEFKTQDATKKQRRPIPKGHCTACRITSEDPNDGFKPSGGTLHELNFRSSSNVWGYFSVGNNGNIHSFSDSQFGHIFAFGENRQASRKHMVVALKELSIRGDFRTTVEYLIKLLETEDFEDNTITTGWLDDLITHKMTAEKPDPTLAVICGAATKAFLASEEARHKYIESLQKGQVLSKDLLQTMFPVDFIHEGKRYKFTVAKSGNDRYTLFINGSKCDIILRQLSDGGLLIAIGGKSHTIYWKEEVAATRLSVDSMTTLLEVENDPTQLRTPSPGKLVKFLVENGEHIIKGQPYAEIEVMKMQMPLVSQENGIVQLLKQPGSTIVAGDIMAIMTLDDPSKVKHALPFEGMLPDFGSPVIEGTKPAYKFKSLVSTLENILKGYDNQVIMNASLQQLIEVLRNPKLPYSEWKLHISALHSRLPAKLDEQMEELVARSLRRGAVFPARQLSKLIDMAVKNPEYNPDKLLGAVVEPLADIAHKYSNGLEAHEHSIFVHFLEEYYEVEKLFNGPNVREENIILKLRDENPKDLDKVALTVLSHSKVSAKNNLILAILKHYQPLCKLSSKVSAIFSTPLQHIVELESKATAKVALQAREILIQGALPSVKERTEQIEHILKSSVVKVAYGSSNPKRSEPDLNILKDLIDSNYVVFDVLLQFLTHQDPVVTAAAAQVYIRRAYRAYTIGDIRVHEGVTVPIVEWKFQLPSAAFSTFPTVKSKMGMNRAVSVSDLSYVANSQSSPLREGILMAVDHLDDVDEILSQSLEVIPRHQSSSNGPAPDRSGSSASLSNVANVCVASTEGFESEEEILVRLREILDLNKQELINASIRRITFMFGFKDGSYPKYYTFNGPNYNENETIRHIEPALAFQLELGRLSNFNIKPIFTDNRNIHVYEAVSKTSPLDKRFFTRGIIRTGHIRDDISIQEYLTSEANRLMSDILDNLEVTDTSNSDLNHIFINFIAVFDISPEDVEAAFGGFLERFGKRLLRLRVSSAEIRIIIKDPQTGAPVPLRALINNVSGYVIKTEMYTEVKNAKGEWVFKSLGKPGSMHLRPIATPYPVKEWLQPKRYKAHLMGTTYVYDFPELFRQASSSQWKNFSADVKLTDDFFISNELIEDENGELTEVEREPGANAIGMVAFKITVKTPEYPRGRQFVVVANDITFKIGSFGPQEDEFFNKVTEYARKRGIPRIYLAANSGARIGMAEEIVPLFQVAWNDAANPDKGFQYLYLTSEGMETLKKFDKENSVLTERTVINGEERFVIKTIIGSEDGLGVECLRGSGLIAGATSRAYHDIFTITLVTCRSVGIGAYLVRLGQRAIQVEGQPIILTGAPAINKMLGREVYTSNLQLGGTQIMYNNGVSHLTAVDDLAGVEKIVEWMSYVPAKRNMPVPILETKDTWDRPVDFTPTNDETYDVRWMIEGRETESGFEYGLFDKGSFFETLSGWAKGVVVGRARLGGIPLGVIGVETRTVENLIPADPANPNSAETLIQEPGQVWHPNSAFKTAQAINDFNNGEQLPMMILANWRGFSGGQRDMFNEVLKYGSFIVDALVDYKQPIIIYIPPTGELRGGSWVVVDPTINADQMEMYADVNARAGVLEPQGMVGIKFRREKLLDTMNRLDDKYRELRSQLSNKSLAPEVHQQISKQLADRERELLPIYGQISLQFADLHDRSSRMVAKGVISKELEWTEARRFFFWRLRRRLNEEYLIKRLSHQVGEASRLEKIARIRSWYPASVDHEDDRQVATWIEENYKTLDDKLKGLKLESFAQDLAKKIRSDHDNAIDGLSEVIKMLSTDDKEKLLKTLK

[4] = system: Fusarium moniliforme (Fm); assay: Growth inhibition assay of fungal pathogens, Fm; assay type: cell-based; conditions: Fusarium verticillioides, 48 h, read-out: Concentration at 90% Inhibition Fm
Summary of the method: as §1

[5] = Collectotrichum graminicola, read-out: Concentration at 90% Inhibition Cg
[6] = Septoria tritici, read-out: Concentration at 90% Inhibition St
[7] = Diplodia maydis, read-out: Concentration at 90% Inhibition Dm
[8] = Botrtyis cinerea, read-out: Concentration at 90% Inhibition Bc
[9] = Table 3b (additional results), ATCC 6258, 3 replicates, MIC recorded at 48 h, read-out: MIC, C. krusei ATCC 6258
[10] = Table 3b (additional results), ATCC 90028, 3 replicates, MIC recorded at 48 h, read-out: MIC, C. albicans ATCC 90028
[11] = growth inhibition at 48 hours vs 2% DMSO control, read-out: Concentration at 90% Inhibition Fv
[12] = mycelial plugs, growth inhibition at 48 hours vs 2% DMSO control, read-out: Concentration at 90% Inhibition Rs
[13] = growth inhibition at 48 hours vs 2% DMSO control, read-out: Concentration at 90% Inhibition Pc
[14] = Table 3b (additional results), ATCC 22019, 3 replicates, MIC recorded at 48 h, read-out: MIC, C. parapsilosis ATCC 22019
[15] = Fusarium moniliforme, growth inhibition at 48 hours vs 2% DMSO control

SMILES | IC90 [1, 5] [mg/L] | IC90 (Septoria tritici (St); [6]) [mg/L] | IC90 (Diplodia maydis (Dm); [7]) [mg/L] | IC90 (Botrtyis cinerea (Bc); [8]) [mg/L] | MIC (C. krusei; [9]) [mg/L] | MIC (C. albicans; [10]) [mg/L] | IC90 [2, 11] [mg/L] | IC50 (human (hACC2)) [nM] | IC90 (Rhizoctonia solani (Rs); [12]) [mg/L] | IC90 [3, 13] [mg/L] | MIC (C. parapsilosis; [14]) [mg/L] | IC50 (fungal (fACC2)) [nM] | IC90 [4, 15] [mg/L] | other results
CCNC(=O)[C@H](C)n1c(=O)c2c(C)c(-n3nccn3)sc2n(C[C@H](OCCC#N)c2cc(F)ccc2OC)c1=O [Compound I-253] | 10 (≈ 17.6 µM) | > 50 | 10 (≈ 17.6 µM) | 2 (≈ 3.51 µM) | > 4.01 | > 4.01 | 10 (≈ 17.6 µM) | 5 to 10 | 2 (≈ 3.51 µM) | > 50 | 2.01 to 4 (≈ 3.53 to 7.02 µM) | 0.3 to 1 | 0.4 (≈ 0.702 µM) | –
CCNC(=O)C(C)(C)n1c(=O)c2c(C)c(-n3nccn3)sc2n(C[C@@H](O)c2cc(F)ccc2OC)c1=O [Compound I-254] | > 50 | > 50 | > 50 | > 50 | 2.01 to 4 (≈ 3.79 to 7.54 µM) | 2.01 to 4 (≈ 3.79 to 7.54 µM) | > 50 | > 40 | 2 (≈ 3.77 µM) | > 50 | 2.01 to 4 (≈ 3.79 to 7.54 µM) | 1 to 5 | 10 (≈ 18.8 µM) | –
CCNC(=O)C(C)(C)n1c(=O)c2c(C)c(-n3nccn3)sc2n(C[C@H](O)c2cc(F)ccc2OC)c1=O [Compound I-255] | 2 (≈ 3.77 µM) | > 50 | 2 (≈ 3.77 µM) | 2 (≈ 3.77 µM) | 2.01 to 4 (≈ 3.79 to 7.54 µM) | 2.01 to 4 (≈ 3.79 to 7.54 µM) | 0.4 (≈ 0.754 µM) | 10 to 40 | 0.4 (≈ 0.754 µM) | > 50 | 2.01 to 4 (≈ 3.79 to 7.54 µM) | 0.3 to 1 | 0.08 (≈ 0.151 µM) | –
COc1ccccc1[C@@H](O)Cn1c(=O)n(C(C)(C)C(=O)NC(C)C)c(=O)c2c(C)c(-n3nccn3)sc21 [Compound I-256] | – | – | – | – | – | – | – | 5 to 10 | – | – | – | 1 to 5 | – | IC90 ([1]; read-out: Concentration at 90% Inhibition Cg, Collectotrichum graminicola): 2 mg/L (≈ 3.8 µM); IC90 (Septoria tritici (St); read-out: Concentration at 90% Inhibition St, Septoria tritici): > 50 mg/L; IC90 (Diplodia maydis (Dm); read-out: Concentration at 90% Inhibition Dm, Diplodia maydis): 2 mg/L (≈ 3.8 µM); IC90 (Botrtyis cinerea (Bc); read-out: Concentration at 90% Inhibition Bc, Botrtyis cinerea): 0.4 mg/L (≈ 0.76 µM); MIC (C. krusei; read-out: MIC, C. krusei ATCC 6258, Table 3b (additional results), 3 replicates, MIC recorded at 48 h): 0.25 to 1 mg/L (≈ 0.475 to 1.9 µM); MIC (C. albicans; read-out: MIC, C. albicans ATCC 90028, Table 3b (additional results), 3 replicates, MIC recorded at 48 h): 1.01 to 2 mg/L (≈ 1.92 to 3.8 µM); IC90 ([2]; read-out: Concentration at 90% Inhibition Fv, Fusarium virguliforme, growth inhibition at 48 hours vs 2% DMSO control): 0.08 mg/L (≈ 0.152 µM); IC90 (Rhizoctonia solani (Rs); read-out: Concentration at 90% Inhibition Rs, Rhizoctonia solani, mycelial plugs, growth inhibition at 48 hours vs 2% DMSO control): 0.08 mg/L (≈ 0.152 µM); IC90 ([3]; read-out: Concentration at 90% Inhibition Pc, Phytophthora capsici, growth inhibition at 48 hours vs 2% DMSO control): 10 mg/L (≈ 19 µM); MIC (C. parapsilosis; read-out: MIC, C. parapsilosis ATCC 22019, Table 3b (additional results), 3 replicates, MIC recorded at 48 h): 0.25 to 1 mg/L (≈ 0.475 to 1.9 µM); IC90 [4]: 0.08 mg/L (≈ 0.152 µM)
CCNC(=O)C(C)(C)n1c(=O)c2c(C)c(-n3nccn3)sc2n(C[C@H](OC(C)=O)c2cc(F)ccc2OC)c1=O [Compound I-257] | > 50 | > 50 | > 50 | > 50 | 1.01 to 2 (≈ 1.76 to 3.49 µM) | 2.01 to 4 (≈ 3.51 to 6.99 µM) | > 50 | > 40 | > 50 | > 50 | 2.01 to 4 (≈ 3.51 to 6.99 µM) | 5 to 10 | 10 (≈ 17.5 µM) | –
COc1ccc(F)cc1[C@H](Cn1c(=O)n(C(C)(C)C(=O)NC(C)C)c(=O)c2c(C)c(-n3nccn3)sc21)OC(C)=O [Compound I-258] | > 50 | > 50 | > 50 | 10 (≈ 17 µM) | 0.25 to 1 (≈ 0.426 to 1.7 µM) | 0.25 to 1 (≈ 0.426 to 1.7 µM) | 10 (≈ 17 µM) | > 40 | > 50 | > 50 | 1.01 to 2 (≈ 1.72 to 3.41 µM) | 5 to 10 | 10 (≈ 17 µM) | –
CCNC(=O)C(C)(C)n1c(=O)c2c(C)c(-n3nccn3)sc2n(C[C@@H](OC(C)=O)c2cc(F)ccc2OC)c1=O [Compound I-260] | 10 (≈ 17.5 µM) | > 50 | 10 (≈ 17.5 µM) | 2 (≈ 3.49 µM) | 1.01 to 2 (≈ 1.76 to 3.49 µM) | 2.01 to 4 (≈ 3.51 to 6.99 µM) | 2 (≈ 3.49 µM) | 10 to 40 | 2 (≈ 3.49 µM) | > 50 | 2.01 to 4 (≈ 3.51 to 6.99 µM) | 0.3 to 1 | 0.4 (≈ 0.699 µM) | –
